What was measured:
[1] = test system: Acinetobacter baumannii ARLG-1852 OXA-23; assay: MIC test of compounds in combination with antibiotics, Acinetobacter baumannii ARLG-1852; settings: for MIC of biapenem in combination with compound, Acinetobacter baumannii ARLG-1852 OXA-23: Biapenem + compound (8 μg/mL); for MIC of meropenem in combination with compound, Acinetobacter baumannii ARLG-1852 OXA-23: Meropenem + compound (8 μg/mL)
Method: (§1) 2-Fold gradient dilution of antibiotics: 300 μL of CAMHVIB medium was added to columns 2-12 of a 96-deep well plate. In column 1, 24 μL of antibiotic stock solution and 576 µL of CAMHB medium were added and mixed well, with a concentration of 512 μg/mL. 300 µL of antibiotic solution was transferred from the column 1 to the second column and mixed well. The process was repeated until column 11, and the column 12 was a blank control.
(§2) Dilution of combined compounds: the compound was diluted 400-fold to 32 μg/ml with CAMHB medium.
(§3) Working solution aliquoting: 25 μL of antibiotics was aliquoted into the 96-U bottom plate with a pipette, and 25 μL of combined compound was added to each well. If antibiotics were used alone, 25 μL of CAMHB medium was added.
(§4) Inoculum solution preparation: 5-6 single colonies were selected from the plate and suspended in normal saline. The bacterial suspension was adjusted to 0.2 (i.e., 0.5 McFarland turbidity, with a bacterial concentration was about 1 to 2×10^8 CFU/mL) with a turbidity meter. The bacterial suspension was diluted 100-fold with CAMHB medium for later use.
(§5) Inoculation: 50 μL of inoculum solution was transferred to the above 50 μL compound plate with a pipette.
(§6) Culture: The 96-U bottom plate was placed in an incubator at 37° C. for 18 to 20 h.

[2] = test system: Klebsiella pneumoniae ATCC BAA-2470; assay: MIC test of compounds in combination with antibiotics, Klebsiella pneumoniae ATCC BAA-2470; settings: for MIC of biapenem in combination with compound, Klebsiella pneumoniae ATCC BAA-2470 NDM-1: Biapenem + compound (8 μg/mL); for MIC of meropenem in combination with compound, Klebsiella pneumoniae ATCC BAA-2470 NDM-1: Meropenem + compound (8 μg/mL)
[3] = test system: Acinetobacter baumannii ARLG-1809 OXA-23; assay: MIC test of compounds in combination with antibiotics, Acinetobacter baumannii ARLG-1809; settings: for MIC of biapenem in combination with compound, Acinetobacter baumannii ARLG-1809 OXA-23: Biapenem + compound (8 μg/mL); for MIC of meropenem in combination with compound, Acinetobacter baumannii ARLG-1809 OXA-23: Meropenem + compound (8 μg/mL)
[4] = test system: Acinetobacter baumannii ARLG-1853 OXA-23; assay: MIC test of compounds in combination with antibiotics, Acinetobacter baumannii ARLG-1853; settings: for MIC of biapenem in combination with compound, Acinetobacter baumannii ARLG-1853 OXA-23: Biapenem + compound (8 μg/mL); for MIC of meropenem in combination with compound, Acinetobacter baumannii ARLG-1853 OXA-23: Meropenem + compound (8 μg/mL)
Method: as §1, §2, §3, §4, §5, §6

[5] = test system: Escherichia coli ARLG 2829; assay: MIC test of compounds in combination with antibiotics, Escherichia coli ARLG 2829; settings: for MIC of biapenem in combination with compound, Escherichia coli ARLG-2829 NDM-5, OXA-1: Biapenem + compound (8 μg/mL); for MIC of meropenem in combination with compound, Escherichia coli ARLG-2829 NDM-5, OXA-1: Meropenem + compound (8 μg/mL)
[6] = test system: Acinetobacter baumannii WX-AB005; assay: MIC test of compounds in combination with antibiotics, Acinetobacter baumannii WX-AB005; settings: for MIC of biapenem in combination with compound, Acinetobacter baumannii WX-AB005: Biapenem + compound (8 μg/mL); for MIC of meropenem in combination with compound, Acinetobacter baumannii WX-AB005: Meropenem + compound (8 μg/mL)
[7] = test system: Acinetobacter baumannii WX-AB013; assay: MIC test of compounds in combination with antibiotics, Acinetobacter baumannii WX-AB013; settings: for MIC of biapenem in combination with compound, Acinetobacter baumannii WX-AB013: Biapenem + compound (8 μg/mL); for MIC of meropenem in combination with compound, Acinetobacter baumannii WX-AB013: Meropenem + compound (8 μg/mL)
[8] = test system: Acinetobacter baumannii ARLG-1791 OXA-23; assay: MIC test of compounds in combination with antibiotics, Acinetobacter baumannii ARLG-1791; settings: for MIC of biapenem in combination with compound, Acinetobacter baumannii ARLG-1791 OXA-23: Biapenem + compound (8 μg/mL); for MIC of meropenem in combination with compound, Acinetobacter baumannii ARLG-1791 OXA-23: Meropenem + compound (8 μg/mL)
[9] = test system: Klebsiella pneumoniae ARLG 1196; assay: MIC test of compounds in combination with antibiotics, Klebsiella pneumoniae ARLG 1196; settings: for MIC of biapenem in combination with compound, Klebsiella pneumoniae ARLG-1196 CTM-1 group, SHV, NDM, TEM: Biapenem + compound (8 μg/mL); for MIC of meropenem in combination with compound, Klebsiella pneumoniae ARLG-1196 CTM-1 group, SHV, NDM, TEM: Meropenem + compound (8 μg/mL)
Method: Strain preparation: the strains to be tested were streaked from glycerol tube at −80° C. onto Mueller Hinton II Agar plates. The plates were then placed in a 37° C. incubator and cultured for 18-24 hours.
Media preparation: CAMHB (Mueller Hinton II Broth): 22 g of powder was dissolved in 1 L of purified water and sterilized at 121° C. for 10 min for use. Saline: 8.5 g NaCl was dissolved in 1 L of pure water and sterilized at 121° C. for 30 min for use.
Preparation of compound and antibiotic stock solutions: the compound and antibiotic were dissolved in DMSO or water to 12.8 mg/mL.
as §1, §2, §3, §4, §5, §6
After the incubation, bacterial growth was visually observed, and the test plate was photographed and recorded.

[10] = test system: Klebsiella pneumoniae ATCC BAA-1705; assay: MIC test of compounds in combination with antibiotics, Klebsiella pneumoniae ATCC BAA-1705; settings: for MIC of biapenem in combination with compound, Klebsiella pneumoniae ATCC BAA-1705 KPC-2: Biapenem + compound (8 μg/mL); for MIC of meropenem in combination with compound, Klebsiella pneumoniae ATCC BAA-1705 KPC-2: Meropenem + compound (8 μg/mL)

CC(Sc1ccc2c(c1C(=O)O)OB(O)C1CC21)C1CC1 (single isomer, unassigned) [Compound 16-c]
4 µg/mL: MIC of meropenem in combination with compound, Acinetobacter baumannii ARLG-1852 OXA-23 [1] | MIC of meropenem in combination with compound, Acinetobacter baumannii ARLG-1809 OXA-23 [3] | MIC of meropenem in combination with compound, Acinetobacter baumannii ARLG-1853 OXA-23 [4] | MIC of meropenem in combination with compound, Escherichia coli ARLG-2829 NDM-5, OXA-1 [5] | MIC of biapenem in combination with compound, Acinetobacter baumannii WX-AB005 [6] | MIC of meropenem in combination with compound, Acinetobacter baumannii WX-AB013 [7]
0.5 µg/mL: MIC of biapenem in combination with compound, Klebsiella pneumoniae ATCC BAA-2470 NDM-1 [2]
≤0.125 µg/mL: MIC of biapenem in combination with compound, Escherichia coli ARLG-2829 NDM-5, OXA-1 [5]
8 µg/mL: MIC of meropenem in combination with compound, Klebsiella pneumoniae ATCC BAA-2470 NDM-1 [2] | MIC of meropenem in combination with compound, Acinetobacter baumannii WX-AB005 [6] | MIC of meropenem in combination with compound, Acinetobacter baumannii ARLG-1791 OXA-23 [8] | MIC of meropenem in combination with compound, Klebsiella pneumoniae ATCC BAA-1705 KPC-2 [10]
1 µg/mL: MIC of biapenem in combination with compound, Acinetobacter baumannii ARLG-1852 OXA-23 [1] | MIC of biapenem in combination with compound, Acinetobacter baumannii ARLG-1853 OXA-23 [4] | MIC of biapenem in combination with compound, Acinetobacter baumannii ARLG-1791 OXA-23 [8] | MIC of biapenem in combination with compound, Klebsiella pneumoniae ARLG-1196 CTM-1 group, SHV, NDM, TEM [9] | MIC of biapenem in combination with compound, Klebsiella pneumoniae ATCC BAA-1705 KPC-2 [10]
2 µg/mL: MIC of biapenem in combination with compound, Acinetobacter baumannii ARLG-1809 OXA-23 [3] | MIC of biapenem in combination with compound, Acinetobacter baumannii WX-AB013 [7] | MIC of meropenem in combination with compound, Klebsiella pneumoniae ARLG-1196 CTM-1 group, SHV, NDM, TEM [9]

CC(Sc1ccc2c(c1C(=O)O)OB(O)C1CC21)C1CC1 (single isomer, unassigned) [Compound 16-d]
8 µg/mL: MIC of meropenem in combination with compound, Acinetobacter baumannii WX-AB005 [6] | MIC of meropenem in combination with compound, Acinetobacter baumannii ARLG-1791 OXA-23 [8]
4 µg/mL: MIC of meropenem in combination with compound, Acinetobacter baumannii ARLG-1809 OXA-23 [3] | MIC of meropenem in combination with compound, Acinetobacter baumannii WX-AB013 [7]
0.5 µg/mL: MIC of meropenem in combination with compound, Klebsiella pneumoniae ATCC BAA-2470 NDM-1 [2] | MIC of biapenem in combination with compound, Acinetobacter baumannii ARLG-1809 OXA-23 [3] | MIC of meropenem in combination with compound, Escherichia coli ARLG-2829 NDM-5, OXA-1 [5] | MIC of biapenem in combination with compound, Acinetobacter baumannii WX-AB013 [7] | MIC of biapenem in combination with compound, Acinetobacter baumannii ARLG-1791 OXA-23 [8] | MIC of biapenem in combination with compound, Klebsiella pneumoniae ATCC BAA-1705 KPC-2 [10]
0.25 µg/mL: MIC of biapenem in combination with compound, Acinetobacter baumannii ARLG-1852 OXA-23 [1] | MIC of biapenem in combination with compound, Klebsiella pneumoniae ATCC BAA-2470 NDM-1 [2] | MIC of biapenem in combination with compound, Acinetobacter baumannii ARLG-1853 OXA-23 [4] | MIC of meropenem in combination with compound, Klebsiella pneumoniae ARLG-1196 CTM-1 group, SHV, NDM, TEM [9]
2 µg/mL: MIC of meropenem in combination with compound, Acinetobacter baumannii ARLG-1852 OXA-23 [1] | MIC of meropenem in combination with compound, Acinetobacter baumannii ARLG-1853 OXA-23 [4] | MIC of biapenem in combination with compound, Acinetobacter baumannii WX-AB005 [6] | MIC of meropenem in combination with compound, Klebsiella pneumoniae ATCC BAA-1705 KPC-2 [10]
≤0.125 µg/mL: MIC of biapenem in combination with compound, Escherichia coli ARLG-2829 NDM-5, OXA-1 [5] | MIC of biapenem in combination with compound, Klebsiella pneumoniae ARLG-1196 CTM-1 group, SHV, NDM, TEM [9]
